Patent US9739784B2, “Giant obscurins and uses thereof in cancer prognosis and therapy” (UNIVERSITY OF MARYLAND, BA, priority 2013, dated 2017)

Test system: obscurin-KD MCF10A cells
Experiment: Sensitivity of obscurin-KD MCF10A cells to chemotherapeutic drugs (cell viability)
Format: cell-based, human
Conditions: compared to control cells
Description: Moreover, loss of giant obscurins results in major cytoskeletal alterations leading to increased cell growth, motility and invasion. […] Thus, breast cancer cells may have different responses to cytoskeletal-targeting chemotherapies depending on the relative expression of giant obscurins.

SMILES	sensitivity of obscurin-depleted MCF10A cells to the drug
COc1cc([C@@H]2c3cc4c(cc3[C@@H](O[C@@H]3O[C@@H]5CO[C@@H](C)O[C@H]5[C@H](O)[C@H]3O)[C@H]3COC(=O)[C@H]23)OCO4)cc(OC)c1O [etoposide]	reduced sensitivity
CC(=O)O[C@H]1C(=O)[C@@]2(C)[C@H]([C@H](OC(=O)c3ccccc3)[C@]3(O)C[C@H](OC(=O)[C@H](O)[C@@H](NC(=O)c4ccccc4)c4ccccc4)C(C)=C1C3(C)C)[C@]1(OC(C)=O)CO[C@@H]1C[C@@H]2O [paclitaxel]	reduced sensitivity
